In patent US20260027068A1, “METHODS OF ADM[…]-KETAMINE” (Perception Neuroscience, Inc., priority 2022, published 2026):

Key:
[1] = tested on: subjects with TRD; test: Modified Observer's Assessment of Alertness/Sedation (MOAA/S)
Experimental: (§1) The Investigational Medicinal Product (IMP) R(−)-ketamine hydrochloride in sterile water for intravenous injection was investigated as an […] treatment of TRD. The International Union of Pure and Applied Chemistry (IUPAC) name is of the IMP is (2R)-2-(2-chlorophenyl)-2-(methylamino)cyclohexan-1-one. Subjects received the solution at either 30 mg or 60 mg dose, or a placebo. The IMP or placebo was administered on Day 1 as a single IV infusion via an electronic infusion pump over 40 minutes. The duration of study participation for each subject was up to 29 days including a screening period, a 3-day in-clinic visit, and 2 follow-up visits. 101 subjects were enrolled in approximately 20 study centers in the EU and the US.
The MOAA/S will were to determine if R(−)-ketamine causes the side effect of sedation and to what degree. Sedation was evaluated by the study staff using the MOAA/S. The observer recorded the subject's alertness pre-dose, every 20 minutes for first 2 hours post-dose, and at 4 and 6 hours after the start of the infusion.

[2] = tested on: subjects with TRD; test: Clinician-Administered Dissociative States Scale (CADSS)
Experimental: as §1
The CADSS was to assess the alertness or dissociative state of subjects administered R(−)-ketamine. The study staff evaluated the subject's degree of dissociation by administering the CADSS questionnaire pre-dose; at 40 minutes post-dose (at EoI); and at 2 and 4 hours post-dose.

## CN[C@@]1(c2ccccc2Cl)CCCCC1=O.Cl [R(−)-ketamine, (2R)-2-(2-chlorophenyl)-2-(methylamino)cyclohexan-1-one]
[1]; 30 mg (n = 33)
  Subjects with post-baseline MOASS <5, number: 9 n
  Subjects with post-baseline MOASS <5, percent: (27.3) %
[1]; 60 mg (n = 35)
  Subjects with post-baseline MOASS <5, number: 12 n
  Subjects with post-baseline MOASS <5, percent: (34.3) %
[2]; 30 mg (n = 33)
  Subjects with post-baseline CADSS >4 and change from baseline >0, number: 12 n
  Subjects with post-baseline CADSS >4 and change from baseline >0, percent: (36.4) %
[2]; 60 mg (n = 35)
  Subjects with post-baseline CADSS >4 and change from baseline >0, number: 8 n
  Subjects with post-baseline CADSS >4 and change from baseline >0, percent: (22.9) %
